# “And” between values parts separate entries of the source, which are not always exact repeats. Equal values may be shown once. Read-outs that look alike come from different tables or passages of the source.
# Legend:
# P11W^IFS [1] = target: T1, P11W^IFS (Pyrococcus horikoshii, UniProt O59010, A364C/C321A/D37H/E368H/K125H/K132H/K223H/K264H/K40H/K55C/P11W); type: binding; conditions: for koff: fitted; for kon: reaction 1, T + Na = TNa
# Description: The kinetic models in Figure 4, Figure 4—figure supplement 4 and Figure 5—figure supplement 1 were implemented in KinTek program (KinTek, Inc) ([Johnson, 2009]) for global parameter fitting and in Copasi ([Hoops et al., 2006]) for simulations. […] Raw relaxation curves, including 21 dissociation and 58 binding reactions were fitted globally in KinTek (Figure 4—figure supplements 2 and 3).
# (§1) 68 individual relaxation curves were fitted globally, allowing only the rates of DL-TBOA dissociation to be adjusted (Figure 4—figure supplement 5).
# [2] = target: P11W^IFS (Hg^2+-crosslinked P11W/K55C/A364C GltPh, inward-facing state) (Pyrococcus horikoshii, UniProt O59010, A364C/C321A/D37H/E368H/K125H/K132H/K223H/K264H/K40H/K55C/P11W); type: binding; conditions: for slope of kr values versus Na^+ concentration: linear fit constrained through the origin, kr from plateaus of ligand binding rates
# P11W^IFS (Hg^2+-crosslinked P11W/K55C/A364C GltPh, inward-facing state), sequence (O59010 whole entry P11W/D37H/K40H/K55C/K125H/K132H/K223H/K264H/C321A/A364C/E368H): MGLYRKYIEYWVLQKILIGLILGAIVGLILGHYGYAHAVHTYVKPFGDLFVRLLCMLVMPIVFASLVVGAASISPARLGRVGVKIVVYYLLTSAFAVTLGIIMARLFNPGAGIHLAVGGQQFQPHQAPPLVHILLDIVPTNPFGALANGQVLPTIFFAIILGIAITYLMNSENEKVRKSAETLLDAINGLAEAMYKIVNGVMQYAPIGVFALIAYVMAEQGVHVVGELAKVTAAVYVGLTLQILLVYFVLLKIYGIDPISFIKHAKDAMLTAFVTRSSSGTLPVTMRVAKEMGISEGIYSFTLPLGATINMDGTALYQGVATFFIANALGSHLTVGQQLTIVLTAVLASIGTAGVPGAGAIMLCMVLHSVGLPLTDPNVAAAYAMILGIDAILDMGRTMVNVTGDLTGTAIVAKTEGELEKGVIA
# Protocol: (§2) For emission scans, protein samples at 1 µM were prepared in 2 mL of 20 mM Hepes/Tris pH 7.4, 300 mM choline chloride and 1 mM DDM. […] Baseline was determined using buffer only and subtracted from the data. […] For real-time fluorescence measurements of ligand binding, protein samples at 1 µM were incubated in 2 mL fluorometer cell containing 20 mM Hepes/Tris pH 7.4, 300 mM choline chloride and 1 mM DDM with various NaCl concentrations at 25°C. Data were normalized by dividing fractional fluorescence change by the maximal change observed upon addition of saturating ligand concentrations at the end of each experiment. After signal equilibration, ligands were added with fast stirring. Excitation and emission wavelengths were 295 and 350 nm, respectively. Here and elsewhere, data were analyzed using SigmaPlot 12.0 (Systat Software, Inc) and GraphPad Prism 7 (GraphPad Software). All kinetic relaxation curves were fitted to single exponentials.
# The full Equation 4 requires fitting of four rate constants, kr, k-r, kon and koff ([Vogt et al., 2012]). […] The data for DL-TBOA binding were fitted to Equation 3.
# wild type GltPh [3] = target: T2, wild type GltPh (Pyrococcus horikoshii, UniProt O59010); conditions: 100 mM NaCl; ref Ryan et al., 2009; cited from earlier work
# T2 sequence (O59010 whole entry): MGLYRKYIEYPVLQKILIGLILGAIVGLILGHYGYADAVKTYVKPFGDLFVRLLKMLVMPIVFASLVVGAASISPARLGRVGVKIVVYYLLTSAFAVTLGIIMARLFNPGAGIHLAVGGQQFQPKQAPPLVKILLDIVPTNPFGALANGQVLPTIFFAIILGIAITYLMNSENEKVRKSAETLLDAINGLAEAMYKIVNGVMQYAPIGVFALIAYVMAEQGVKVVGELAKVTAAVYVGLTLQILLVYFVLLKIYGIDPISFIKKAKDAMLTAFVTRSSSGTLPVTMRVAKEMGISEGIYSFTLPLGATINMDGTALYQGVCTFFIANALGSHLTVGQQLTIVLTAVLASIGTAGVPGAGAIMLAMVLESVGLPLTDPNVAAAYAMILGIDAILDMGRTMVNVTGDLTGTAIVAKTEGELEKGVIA
# P11W^IFS [4] = target: T1, P11W^IFS; test: Fluorescence-based titration using RH421; type: binding
# Protocol: After addition of appropriate NaCl concentrations and 200 nM RH421 (Sigma-Aldrich), the samples were incubated at 25°C until fluorescence signal plateaued. […] Excitation and emission wavelengths were 532 and 628 nm, respectively.
# wild type GltPh [5] = target: T2, wild type GltPh; test: L-asp transport (uptake and exchange) in proteoliposomes; type: biochemical; design: made in house; host or cells: Escherichia coli (DH10b is stated for the mutants); conditions: 35°C, 200 mM NaCl external
# Protocol: GltPh protein samples were reconstituted into liposomes as previously described ([Boudker et al., 2007]; [Ryan et al., 2009]). In brief, 0.1% L-α-Phosphatidylethanolamine-N-lissamine rhodamine B sulfonyl (Avanti Polar Lipids) was added to with 3:1 (w/w) mixture of E.coli polar lipid extract and egg phosphatidylcholine and dried on rotary evaporator and under vacuum overnight. The mixture was hydrated using 20 mM Hepes/Tris, pH 7.4 and 200 mM KCl buffer at final lipid concentration of 5 mg/ml by 10 freeze/thaw cycles. The suspensions were extruded through 400 nm filter membranes (Whatman) 10 times to form unilamellar liposomes. The rhodamine fluorescence of the liposomes was measured to generate a concentration calibration curve; excitation and emission wavelengths were 560 and 583 nm, respectively. […] Final concentrations of proteoliposomes were determined by rhodamine fluorescence.
# For substrate exchange experiments, the internal proteoliposome buffer was replaced with buffer containing 20 mM Hepes/Tris, pH 7.4 and 200 mM NaCl and 100 µM L-asp. […] The washed filter membranes were transferred into scintillation vials, and retained radioactivity was measured using LS6500 scintillation counter (Beckman Coulter). Background uptake was measured in the reaction buffer containing 20 mM Hepes/Tris pH 7.4, 200 mM KCl, 500 nM ^3H-L-asp and 100 nM cold L-asp.
# [6] = target: T3, FM-P11W^IFS (R276S/M395R within P11W^IFS background) (Pyrococcus horikoshii, UniProt O59010, A364C/C321A/D37H/E368H/K125H/K132H/K223H/K264H/K40H/K55C/M395R/P11W/R276S); type: binding
# T3 construct: made in house; host or cells: Escherichia coli DH10b
# T3 sequence (O59010 1-417 P11W/D37H/K40H/K55C/K125H/K132H/K223H/K264H/R276S/C321A/A364C/E368H/M395R): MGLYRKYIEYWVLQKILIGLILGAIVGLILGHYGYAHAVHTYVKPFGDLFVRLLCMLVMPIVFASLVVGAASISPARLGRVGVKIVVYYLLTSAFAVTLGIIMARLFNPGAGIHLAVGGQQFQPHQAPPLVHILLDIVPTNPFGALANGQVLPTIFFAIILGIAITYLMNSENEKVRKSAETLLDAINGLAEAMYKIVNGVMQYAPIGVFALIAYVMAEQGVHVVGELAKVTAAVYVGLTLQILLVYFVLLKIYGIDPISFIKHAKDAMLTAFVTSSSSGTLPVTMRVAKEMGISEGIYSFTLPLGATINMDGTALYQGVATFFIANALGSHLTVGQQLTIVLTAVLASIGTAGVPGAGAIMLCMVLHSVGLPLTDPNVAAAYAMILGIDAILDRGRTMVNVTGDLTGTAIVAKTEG
# Protocol: as §2, §1
# GltPh Na3 site = test system: GltPh Na3 site; design: method as in Heinzelmann et al., 2011; Heinzelmann et al., 2013; conditions: estimated in computational studies, ref Heinzelmann et al., 2011, 2013; cited from earlier work
# T1 sequence (O59010 whole entry P11W/D37H/K40H/K55C/K125H/K132H/K223H/K264H/C321A/A364C/E368H): as the sequence (O59010 whole entry P11W/D37H/K40H/K55C/K125H/K132H/K223H/K264H/C321A/A364C/E368H) above
structure (smiles),measurement,setting,value
"N[C@H](C(=O)O)[C@H](OCc1ccccc1)C(=O)O (racemic) [DL-TBOA, DL-threo-β-benzyloxyaspartic acid, reference compound]",increase in the rate of unbinding relative to L-asp in kinetic model,P11W^IFS [1],about 20 fold
same,koff,"P11W^IFS [1]; reaction 3, TNa + A = TANa, P11W^IFS/DL-TBOA model",11.5 ± 5 s⁻¹
same,koff,"P11W^IFS [1]; reaction 4, TNa2 + A = TANa2, P11W^IFS/DL-TBOA model",1.72 ± 0.09 s⁻¹
same,kobs of DL-TBOA binding,"[2]; 8 mM DL-TBOA, 4 mM Na^+, representative experiment, single exponential fit",0.2106 s⁻¹
same,slope of kr values versus Na^+ concentration,[2],26 ± 1.7 M⁻¹ s⁻¹
"N[C@@H](CC(=O)O)C(=O)O [L-asp, aspartate]",Km,wild type GltPh [3],~0.1 µM
same,slope of log-log plot of L-asp dissociation constants as a function of Na^+ concentration,P11W^IFS [4],2.5
same,rate of concentrative Na^+-driven uptake of radiolabeled L-asp compared with rate of L-asp exchange,wild type GltPh [5],significantly higher
same,kobs of L-asp binding,"[2]; 0.5 mM L-asp, 4 mM Na^+, representative experiment, single exponential fit",0.0712 s⁻¹
same,slope of kr values versus Na^+ concentration,[2],36 ± 0.9 M⁻¹ s⁻¹ and 36 M⁻¹ s⁻¹
"[Na+] [Na^+, sodium]",increase of the rate of binding of the first Na^+ ion relative to P11W^IFS,[6]; kinetic model adjustment,4 fold
same,kon,"[6]; reaction 1, T + Na = TNa, FM-P11W^IFS/L-asp model",144 M⁻¹ s⁻¹
same,koff,"[6]; reaction 1, T + Na = TNa, FM-P11W^IFS/L-asp model, optimized in global fitting (#)",39 ± 3 s⁻¹
same,Na^+ concentration at which fluxes through 'second Na^+ binds first' and 'L-asp binds first' branches are equal,"P11W^IFS [1]; kinetic model, forward and reverse directions",~ 3.6 mM and 3.6 mM
same,kon,"P11W^IFS [1]; P11W^IFS/DL-TBOA model, fixed (*)",36 M⁻¹ s⁻¹
same,kon,"P11W^IFS [1]; P11W^IFS/L-asp model, fixed during fitting (*)",36 M⁻¹ s⁻¹
same,remaining binding rates for Na^+ ions,P11W^IFS [1]; set at an arbitrary high value,10^7 M^−1 s^−1
same,affinity of binding of the first Na^+ ion,P11W^IFS [1]; suggested by experimental data,no more than −0.5 kcal/mol
same,Kd,"[2]; Hill coefficient n fixed to 1, L-asp dissociation experiments, read-out: KD,Na of rapidly equilibrating Na^+ ions (fit to Equation 2)",40 ± 20 µM
same,Kd,"[2]; Hill coefficient n fixed to 2, L-asp dissociation experiments, read-out: KD,Na of rapidly equilibrating Na^+ ions (fit to Equation 2)",130 ± 20 µM
same,Kd,"[2]; Hill coefficient n fixed to 3, L-asp dissociation experiments, read-out: KD,Na of rapidly equilibrating Na^+ ions (fit to Equation 2)",150 ± 13 µM
same,Kd,[2]; read-out: affinity of the two 'locking' Na^+ ions,~100 µM
same,intrinsic affinity of Na3 site,GltPh Na3 site,-16 kcal/mol

# Source: publication PMC6175574, “Kinetic mechanism of coupled binding in sodium-aspartate symporter GltPh” (eLife, 2018)
